# ChEMBL document CHEMBL1201862, “PubChem BioAssay data set” (2004)
#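 Five compound concentrations were applied to cells in 96-well plates for 48 hours; endpoints were derived by simple linear interpolation of the resulting dose-response curve. At the GI50, growth is halved.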 Calls of active or inactive are those of the source. No stated cut-off is given here; in the data, active = GI50 up to about 1.1 µM and inactive = higher.
# Experiments:
# Assay in all cases: NCI tumour cell line growth inhibition, 48 h
# [1] = test system: HCT-116
# [2] = test system: UACC-257
# [3] = test system: SF-268
# [4] = test system: M14
# [5] = test system: U-251
# [6] = test system: OVCAR-8
# [7] = test system: HOP-18
# [8] = test system: OVCAR-5
# [9] = test system: IGROV-1
# [10] = test system: SNB-75
# [11] = test system: NCI-H23
# [12] = test system: HL-60
# [13] = test system: MOLT-4
# [14] = test system: RPMI-8226
# [15] = test system: HCC 2998
# [16] = test system: SF-295
# [17] = test system: NCI-H460
# [18] = test system: SNB-78
# [19] = test system: SK-MEL-2
# [20] = test system: A498
# [21] = test system: NCI-H226
# [22] = test system: 786-0
# [23] = test system: SN12C
# [24] = test system: SK-MEL-5
# [25] = test system: DLD-1
# [26] = test system: COLO 205
# [27] = test system: XF498
# [28] = test system: Malme-3M
# [29] = test system: KM12
# [30] = test system: SR
# [31] = test system: TK-10
# [32] = test system: LXFL 529
# [33] = test system: EKVX
# [34] = test system: M19-MEL
# [35] = test system: SK-OV-3
# [36] = test system: UO-31
# [37] = test system: HCT-15
# [38] = test system: NCI-H522
# [39] = test system: A549
# [40] = test system: DMS-114
# [41] = test system: K562
# [42] = test system: ACHN
# [43] = test system: CAKI-1
# [44] = test system: HT-29
# [45] = test system: SK-MEL-28
# [46] = test system: SW-620
# [47] = test system: SF-539
# [48] = test system: LOX IMVI
# [49] = test system: HOP-92
# [50] = test system: SNB-19
# [51] = test system: UACC-62
# [52] = test system: HOP-62
# [53] = test system: OVCAR-4
# [54] = test system: RXF 393
# [55] = test system: RXF 631
# [56] = test system: KM-20L2
# [57] = test system: OVCAR-3
# [58] = test system: CCRF-CEM
# [59] = test system: DMS-273
compound,measurement,setting,value
FC(F)(F)c1nc2ccc3[nH]c4c(-c5ccccc5)nccc4c3c2[nH]1,GI50,[1],> 74.5 µM (inactive)
same,GI50,[2],> 100 µM (inactive)
same,GI50,[3],> 100 µM (inactive)
same,GI50,[4],> 100 µM (inactive)
same,GI50,[5],> 100 µM (inactive)
same,GI50,[6],> 100 µM (inactive)
same,GI50,[7],> 100 µM (inactive)
same,GI50,[8],> 100 µM (inactive)
same,GI50,[9],> 100 µM (inactive)
same,GI50,[10],> 100 µM (inactive)
same,GI50,[11],> 100 µM (inactive)
same,GI50,[12],97.5 µM (inactive)
same,GI50,[13],> 100 µM (inactive)
same,GI50,[14],> 42.9 µM (inactive)
same,GI50,[15],> 100 µM (inactive)
same,GI50,[16],> 100 µM (inactive)
same,GI50,[17],> 80 µM (inactive)
same,GI50,[18],> 100 µM (inactive)
same,GI50,[19],> 100 µM (inactive)
same,GI50,[20],> 100 µM (inactive)
same,GI50,[21],> 100 µM (inactive)
same,GI50,[22],> 100 µM (inactive)
same,GI50,[23],> 100 µM (inactive)
same,GI50,[24],> 100 µM (inactive)
same,GI50,[25],> 100 µM (inactive)
same,GI50,[26],> 100 µM (inactive)
same,GI50,[27],> 100 µM (inactive)
same,GI50,[28],> 100 µM (inactive)
same,GI50,[29],> 100 µM (inactive)
same,GI50,[30],17.9 µM (inactive)
same,GI50,[31],> 100 µM (inactive)
same,GI50,[32],> 100 µM (inactive)
same,GI50,[33],> 100 µM (inactive)
same,GI50,[34],> 100 µM (inactive)
same,GI50,[35],> 100 µM (inactive)
same,GI50,[36],> 100 µM (inactive)
same,GI50,[37],> 100 µM
same,GI50,[38],> 83.8 µM (inactive)
same,GI50,[39],> 100 µM (inactive)
same,GI50,[40],> 45.4 µM (inactive)
same,GI50,[41],> 56.9 µM (inactive)
same,GI50,[42],> 100 µM (inactive)
same,GI50,[43],> 100 µM (inactive)
same,GI50,[44],> 100 µM (inactive)
same,GI50,[45],> 100 µM (inactive)
same,GI50,[46],> 100 µM (inactive)
same,GI50,[47],> 100 µM (inactive)
same,GI50,[48],> 46.8 µM (inactive)
same,GI50,[49],> 100 µM (inactive)
same,GI50,[50],> 100 µM (inactive)
same,GI50,[51],> 100 µM (inactive)
same,GI50,[52],> 100 µM (inactive)
same,GI50,[53],> 100 µM (inactive)
same,GI50,[54],> 100 µM (inactive)
same,GI50,[55],> 100 µM (inactive)
same,GI50,[56],> 100 µM (inactive)
same,GI50,[57],> 100 µM (inactive)
same,GI50,[58],> 45.7 µM (inactive)
Cc1ccc(Nc2nc3c(s2)C(=O)c2ccccc2C3=O)cc1,GI50,[2],1.75 µM (inactive)
same,GI50,[3],1.9 µM (inactive)
same,GI50,[4],1.78 µM (inactive)
same,GI50,[5],1.89 µM (inactive)
same,GI50,[6],2.18 µM (inactive)
same,GI50,[7],1.13 µM (inactive)
same,GI50,[8],1.91 µM (inactive)
same,GI50,[9],1.64 µM (inactive)
same,GI50,[10],2.14 µM (inactive)
same,GI50,[11],1.82 µM (inactive)
same,GI50,[12],0.229 µM (active)
same,GI50,[13],1.04 µM (active)
same,GI50,[14],1.23 µM (inactive)
same,GI50,[15],2.01 µM (inactive)
same,GI50,[16],1.6 µM (inactive)
same,GI50,[17],1.94 µM (inactive)
same,GI50,[18],2.49 µM (inactive)
same,GI50,[19],1.89 µM (inactive)
same,GI50,[20],16.4 µM (inactive)
same,GI50,[21],19.4 µM (inactive)
same,GI50,[22],1.88 µM (inactive)
same,GI50,[23],1.92 µM (inactive)
same,GI50,[24],1.75 µM (inactive)
same,GI50,[25],2.07 µM (inactive)
same,GI50,[26],12.3 µM (inactive)
same,GI50,[27],1.94 µM (inactive)
same,GI50,[28],1.92 µM (inactive)
same,GI50,[29],1.55 µM (inactive)
same,GI50,[31],7.26 µM (inactive)
same,GI50,[32],1.63 µM (inactive)
same,GI50,[33],5.14 µM (inactive)
same,GI50,[34],0.324 µM (active)
same,GI50,[35],24.9 µM (inactive)
same,GI50,[36],2.03 µM (inactive)
same,GI50,[37],1.94 µM
same,GI50,[38],1.8 µM (inactive)
same,GI50,[39],2.16 µM (inactive)
same,GI50,[40],1.52 µM (inactive)
same,GI50,[41],2.29 µM (inactive)
same,GI50,[42],1.75 µM (inactive)
same,GI50,[43],1.63 µM (inactive)
same,GI50,[44],3.18 µM (inactive)
same,GI50,[45],1.62 µM (inactive)
same,GI50,[46],1.69 µM (inactive)
same,GI50,[47],5.35 µM (inactive)
same,GI50,[48],1.58 µM (inactive)
same,GI50,[49],2.86 µM (inactive)
same,GI50,[50],1.79 µM (inactive)
same,GI50,[51],1.87 µM (inactive)
same,GI50,[52],7.16 µM (inactive)
same,GI50,[53],1.55 µM (inactive)
same,GI50,[55],1.95 µM (inactive)
same,GI50,[56],17.5 µM (inactive)
same,GI50,[57],1.52 µM (inactive)
same,GI50,[58],1.58 µM (inactive)
same,GI50,[59],1.95 µM (inactive)
